Data published in patent publication US5656460A, “α-glycosyl derivative of the catecholamine or its salt, and its preparation and uses” (Kabushiki Kaisha Hayashibara Seibutsu Kagaku Kenkyujo, priority 1992, dated 1997).

Experiments:
7-week-old dd mice = assay: Acute toxicity test (oral, mice); format: in vivo
Method: The α-glucosyl methyldopa preparations [I] and [II] were tested for their acute toxicity by orally administering them to 7-week-old dd mice.

[1] = Reducing reaction by the Nelson-Somogyi's method; format: physicochemical
Description: The α-glucosyl methyldopa preparations [I] and [II] turn green on the anthrone-sulfuric acid reaction. The preparations are negative on a reducing reaction by the Nelson-Somogy's method;

Solubility in solvent = format: physicochemical
β-glucosidase = assay: Stability against hydrolysis by β-glucosidase; format: in vitro ADME
Description: (6) Stability against hydrolysis

[2] = Stability in aqueous solution (coloring degree at 400 nm relating to oxidation); format: physicochemical; conditions: 100 mM phosphate buffer pH 8.0, 25° C.; for Stability compared with intact methyldopa: up to 9 days; for Coloring degree at 400 nm: 100 ppm
Method: Fifty ml aliquots of 100 mM phosphate buffer (pH 8.0) were distributed into 50 ml-flasks, added with the α-glucosyl methyldopa preparation [I] or [II] to give a concentration of 100 ppm, allowed to stand at 25° C., and sampled at a prescribed time interval to determine the stability of the preparation.
Intact methyldopa was used as a control. Five ml solution was collected from each flask at a prescribed time interval, and subjected to the measurement of the coloring degree at 400 nm relating to the oxidation of methyldopa.

[3] = tested on: α-glucosidase (EC 3.2.1.20); assay: Stability against hydrolysis by α-glucosidase; format: in vitro ADME, pig; conditions: forms the catecholamine (methyldopa) and D-glucose
Description: (6) Stability against hydrolysis (a) The α-glucosyl methyldopa preparations [I] and [II] are hydrolyzed by α-glucosidase (EC 3.2.1.20) specimen derived from pig liver to form methyldopa and D-glucose;

| Structure (SMILES) | Acute toxicity: dose up to which no mouse died (7-week-old dd mice) [g/kg] | Reducing reaction / reducing activity [1] | Solubility in benzen (Solubility in solvent) | Solubility in chloroform (Solubility in solvent) | Solubility in ethanol (Solubility in solvent) | Solubility in ether (Solubility in solvent) | Solubility in methanol (Solubility in solvent) | Solubility in water (Solubility in solvent) | Hydrolysis by β-glucosidase (β-glucosidase) | Stability compared with intact methyldopa [2] | Coloring degree at 400 nm ([2]; day 0) | Coloring degree at 400 nm ([2]; day 1) | Coloring degree at 400 nm ([2]; day 3) | Coloring degree at 400 nm ([2]; day 5) | Coloring degree at 400 nm ([2]; day 9) | Hydrolysis by α-glucosidase [3] |
| --- | --- | --- | --- | --- | --- | --- | --- | --- | --- | --- | --- | --- | --- | --- | --- | --- |
| CC(N)(Cc1ccc(O[C@H]2O[C@H](CO)[C@@H](O)[C@H](O)[C@H]2O)c(O)c1)C(=O)O (stereo partly drawn) [α-glucosyl methyldopa preparation [II], 3-[3-hydroxy-(4-α-D-glucopyranosyl)]-2-methylalanine] | ≥ 5 | negative | insoluble | insoluble | slightly soluble | insoluble | slightly soluble | readily soluble | not hydrolyzed | much stabler than intact methyldopa | 0.0 | 0.0 | 0.0 | 0.0 | 0.0 | hydrolyzed |
| CC(N)(Cc1ccc(O)c(O[C@H]2O[C@H](CO)[C@@H](O)[C@H](O)[C@H]2O)c1)C(=O)O (stereo partly drawn) [α-glucosyl methyldopa preparation [I], 3-[4-hydroxy-(3-α-D-glucopyranosyl)]-2-methylalanine] | ≥ 5 | negative | insoluble | insoluble | slightly soluble | insoluble | slightly soluble | readily soluble | not hydrolyzed | much stabler than intact methyldopa | 0.0 | 0.0 | 0.0 | 0.0 | 0.0 | hydrolyzed |
